According to patent publication US20180207069A1, “COSMETIC USE OF A MONOUNSATURATED FATTY ACID OR ONE OF ITS SALTS AND/OR OF ITS ESTERS AS DEODORANT ACTIVE AGENT” (L'OREAL, priority 2012, published 2018):
Converted amounts (≈) assume the structure as drawn.

How the values were obtained:
Assay type in all cases: cell-based
Corynebacterium striatum [1] = test: GC/MS (SPME) analysis of volatile compounds of cultures, C. striatum; conditions: C. striatum culture, 37° C., 48 hours
Protocol: (§1) The four microorganisms were each cultured in a liquid medium comprising 1.6 g/l of KH2PO4, 5.0 g/l of (NH4)2HPO4, 0.38 g/l of Na2SO4, 3.35 g/l of yeast nitrogen base (difco), 0.5 g/l of yeast extract and 0.5 g/l of MgCl2.6H2O, 1.0 g/l of Tween 80, 1.0 g/l of valine, 1.0 g/l of leucine, 1.0 g/l of isoleucine and 1.0 g/l of methionine. Depending on the analyses to be carried out (profile of the odour by GC/MS or sensory evaluation), the various types of culture medium were prepared either in 2 ml of culture (high-throughput screening format in 96-well microtitration plates) or else 200 ml in Erlenmeyer flasks. For the GC/MS analyses, 2 ml of culture are sufficient but, for the sensory evaluation, for a panel of 12 people, the minimum amount of 200 ml of culture is necessary. […]
(§2) The strains were cultured aerobically at 37° C. for 48 hours. The magnitude of the growth was measured with the optical density (OD) at 600 nm. The cultures were subsequently analyzed for volatile odorous compounds by SPME-GC/MS. […]
(§3) In order to determine the relative amount of volatile compounds present in the culture medium, a solid phase microextraction (SPME; Supelco, USA), gas chromatography coupled with mass spectrometry (HS-SPME-GC/MS; Fisons, USA), is carried out. […] The mass spectra were recorded over an m/z range of 30-250. […]

Corynebacterium striatum [2] = test: In vitro sensory evaluation of culture odour, C. striatum; conditions: petroselinic acid 0.05 g/l in culture medium, panel of 12 experts
Protocol: as §1, with “flasks.” for “flasks. For the GC/MS analyses, 2 ml of culture are sufficient but, for the sensory evaluation, for a panel of 12 people, the minimum amount of 200 ml of culture is necessary.”
as §2
(§4) For the sensory analysis, the minimum amount of 200 ml of culture medium is necessary for a panel of 12 experts. […] Before the sensory analysis, the cultures were sterilized by filtration and the filtrates were stored at 4° C. until analyzed. In a first phase, the profile of the odour was evaluated on the basis of the strongest odours by the sensory panel, with an intensity grade which varies from 1 to 4 (1—a little, 2—moderate, 3—strong and 4—very strong). […]

[3] = tested on: Staphylococcus epidermidis; test: GC/MS (SPME) analysis of volatile compounds of cultures, S. epidermidis; conditions: S. epidermidis culture, 37° C., 48 hours
Protocol: as §1, §2, §3

[4] = tested on: Staphylococcus epidermidis; test: In vitro sensory evaluation of culture odour, S. epidermidis; conditions: petroselinic acid 0.05 g/l in culture medium, panel of 12 experts
Protocol: as §1, with “flasks.” for “flasks. For the GC/MS analyses, 2 ml of culture are sufficient but, for the sensory evaluation, for a panel of 12 people, the minimum amount of 200 ml of culture is necessary.”
as §2, §4

[5] = tested on: Corynebacterium mucifaciens; test: GC/MS (SPME) analysis of volatile compounds of cultures, C. mucifaciens; conditions: C. mucifaciens culture, 37° C., 48 hours
Protocol: as §1, §2, §3

[6] = tested on: Corynebacterium mucifaciens; test: In vitro sensory evaluation of culture odour, C. mucifaciens; conditions: petroselinic acid 0.05 g/l in culture medium, panel of 12 experts
Protocol: as §1, with “flasks.” for “flasks. For the GC/MS analyses, 2 ml of culture are sufficient but, for the sensory evaluation, for a panel of 12 people, the minimum amount of 200 ml of culture is necessary.”
as §2, §4

Corynebacterium striatum [7] = test: Minimum Inhibitory Concentration (MIC), C. striatum; conditions: LMG19648, read-out: Minimum Inhibitory Concentration (MIC) C. striatum
Text: (§5) The Minimum Inhibitory Concentration (MIC) on the microorganisms Corynebacterium striatum, Corynebacterium mucifaciens and Corynebacterium xerosis with the following active agents was compared.

[8] = tested on: Corynebacterium mucifaciens; test: Minimum Inhibitory Concentration (MIC), C. mucifaciens; conditions: LMG19067, read-out: Minimum Inhibitory Concentration (MIC) C. mucifaciens
Text: as §5

Corynebacterium xerosis = test: Minimum Inhibitory Concentration (MIC), C. xerosis; conditions: DSM20743, read-out: Minimum Inhibitory Concentration (MIC) C. xerosis
Text: as §5

[9] = acid added to culture medium (petroselinic 0.05, linolenic 0.5, myristic 0.005, azelaic 0.5 g/l)
[10] = petroselinic acid 0.05 g/l in culture medium

Row | SMILES | amount of aldehydes (Corynebacterium striatum [1]; [9]) | concentration of ketone compounds (Corynebacterium striatum [1]; [10]) | description of the odour notes (Corynebacterium striatum [2]) | resulting odour as perceived by the panel of experts (Corynebacterium striatum [2]) | amount of aldehydes [3, 9] | concentration of ketone compounds [3, 10] | description of the odour notes [4] | resulting odour as perceived by the panel of experts [4] | aldehydes in the odour profile [5, 9] | concentration of ketone compounds [5, 10] | description of the scent [6] | perception of the odour [6] | MIC (Corynebacterium striatum [7]) [mg/L] | MIC [8] [mg/L] | MIC (Corynebacterium xerosis) [mg/L]
1 | CCCCCCCCCCC/C=C\CCCCC(=O)O [Petroselinic acid] | significant reduction | greater concentration | fresher notes with scents described as “green” and “putty” | more pleasant | significant reduction | greater concentration | fresher notes with scents described as “green” and “putty” | more pleasant | noticeable reduction | greater concentration | scent described as “putty” | more pleasant |  |  | 
2 | Oc1cc(Cl)ccc1Oc1ccc(Cl)cc1Cl [Triclosan, 2,4,4′-trichloro-2′-hydroxydiphenyl ether] |  |  |  |  |  |  |  |  |  |  |  |  | 10 (≈ 34.5 µM) | 25 (≈ 86.3 µM) | 50 (≈ 173 µM)
